Laboratory results from the NIST ThermoML archive (doi:10.1021/je8009336).

What was measured:
[1] = xn = mol fraction of the nth substance listed; conditions: 313.15 K, 101 kPa, Liquid; for speed of sound: Vibrating Tube Densimeter; for mass density: Vibrating tube method
[2] = refractive index (Na D-line) (dimensionless); xn = mol fraction of the nth substance listed; conditions: 313.15 K, 101 kPa, Liquid, Standard Abbe refractometry

C1CCCC1 [cyclopentane] + c1ccccc1
Conditions	mass density, [1] [kg/m3]	refractive index, [2]	speed of sound, [1] [m/s]
x1 = 0.0366	852	1.48417	1224.4
x1 = 0.0941	843.4	1.47833	1215.7
x1 = 0.1945	828.6	1.46795	1200.6
x1 = 0.2706	817.8	1.46049	1190.2
x1 = 0.3937	800.7	1.44843	1175.5
x1 = 0.4893	787.8	1.43934	1165
x1 = 0.5917	774.4	1.42988	1155.3
x1 = 0.6893	762.1	1.4211	1147.2
x1 = 0.7983	748.6	1.41158	1139.7
x1 = 0.8971	736.8	1.40315	1134.2
x1 = 0.9471	731	1.39904	1132
x1 = 1	725	1.39456	1130

CCc1ccccc1 [ethylbenzene] + C1CCCC1
x2 = 0
Conditions	mass density [kg/m3]	refractive index	speed of sound [m/s]
[1]	849.3	–	1257.3
[2]	–	1.48538	–

CCc1ccccc1 [ethylbenzene] + C1CCCCC1
Conditions	mass density, [1] [kg/m3]	refractive index, [2]	speed of sound, [1] [m/s]
x2 = 0	849.3	1.48538	1257.3
x2 = 0.0515	844.7	1.4814	1251.8
x2 = 0.0976	840.5	1.47828	1247
x2 = 0.2494	826.7	1.46788	1231.8
x2 = 0.3647	816.2	1.45999	1221.3
x2 = 0.3855	814.3	1.45831	1219.3
x2 = 0.5028	803.6	1.45026	1209.4
x2 = 0.6009	794.6	1.44349	1201.9
x2 = 0.7005	785.6	1.43614	1195
x2 = 0.7976	776.9	1.42925	1189.2
x2 = 0.9017	768	1.42208	1184.5
x2 = 0.9504	763.8	1.41865	1182.8

CCc1ccccc1 [ethylbenzene] + CC1CCCCC1
x2 = 0
Conditions	mass density [kg/m3]	refractive index	speed of sound [m/s]
[1]	849.3	–	1257.3
[2]	–	1.48538	–

CC1CCCCC1 [methylcyclohexane] + CCc1ccccc1
Conditions	mass density, [1] [kg/m3]	refractive index, [2]	speed of sound, [1] [m/s]
x1 = 0.0509	843.8	1.48108	1249.9
x1 = 0.0975	838.9	1.4774	1243.4
x1 = 0.1957	828.6	1.46965	1230.3
x1 = 0.2794	820	1.46339	1219.8
x1 = 0.4006	807.9	1.45428	1205.4
x1 = 0.4962	798.4	1.44736	1194.9
x1 = 0.5977	788.6	1.44003	1184.5
x1 = 0.6968	779.2	1.43303	1174.9
x1 = 0.7988	769.7	1.42601	1165.7
x1 = 0.8973	760.9	1.41941	1157.5
x1 = 0.9483	756.4	1.41609	1153.5
x1 = 1	752	1.41272	1149.6

CC1CCCCC1 [methylcyclohexane] + Cc1ccccc1
Conditions	mass density, [1] [kg/m3]	refractive index, [2]	speed of sound, [1] [m/s]
x1 = 0.0488	842.1	1.48065	1233.3
x1 = 0.0977	836.1	1.4763	1226
x1 = 0.1967	824.6	1.4675	1212.4
x1 = 0.2969	813.6	1.45909	1200.1
x1 = 0.3751	805.5	1.45314	1191.7
x1 = 0.5049	792.7	1.44348	1179.2
x1 = 0.5986	784	1.43702	1171.5
x1 = 0.7022	774.9	1.43008	1164
x1 = 0.8016	766.8	1.42397	1158.1
x1 = 0.9003	759.1	1.41817	1153.2
x1 = 0.9487	755.5	1.41549	1151.2
x1 = 1	752	1.41272	1149.6
